Tested on: anti-chlorpyrifos monoclonal antibody
Type: binding, mouse

Row | Structure (SMILES) | relative reactivity: concentration equivalent to 1 ppB of chlorpyrifos in the immunoassay [ppm]
1 | Cn1c(Cl)c(Cl)cc(Cl)c1=O [N-methyl-3,5,6-trichloro-2-pyridinone] | 75
2 | CCOP(=O)(Cc1ccc(C)cc1)OCC [diethyl 4-methylbenzylphosphonate] | 50
